System in one data set: not listed separately
Put plainly: Metabolic stability in human liver microsomes assessed as half life at […] incubated upto 45 mins in presence of NADPH by LC-MS/MS analysis. The format is ADME, Microsome.
Take `COc1cc(C2COC2)ccc1COc1cccc(C2CCN(Cc3nc4ccc(C(=O)O)cc4n3C[C@@H]3CCO3)CC2)n1`: the half-life came to 2.56 h.

For `O=C(O)c1ccc2nc(CN3CCC(c4cccc(OCc5ccc(C6COC6)cc5Cl)n4)CC3)n(C[C@@H]3CCO3)c2c1`, the half-life was 2.06 h.

For `O=C(O)c1ccc2nc(CN3CCC(c4cccc(OCc5ccc(C6COC6)cn5)n4)CC3)n(C[C@@H]3CCO3)c2c1`, the half-life amounted to 0.717 h.

The target of the next data set is Glucagon-like peptide 1 receptor (Homo sapiens, UniProt P43220). Briefly: Agonist activity at human GLP-1R expressed in HEK293 cells assessed as accumulation of cAMP preincubated for 30 mins followed by d2-labeled cAMP addition and anti-cAMP cryptate addition measured after 60 mins by HTRF assay. The format is functional, cell-based.
Sequence of Glucagon-like peptide 1 receptor (P43220 whole entry): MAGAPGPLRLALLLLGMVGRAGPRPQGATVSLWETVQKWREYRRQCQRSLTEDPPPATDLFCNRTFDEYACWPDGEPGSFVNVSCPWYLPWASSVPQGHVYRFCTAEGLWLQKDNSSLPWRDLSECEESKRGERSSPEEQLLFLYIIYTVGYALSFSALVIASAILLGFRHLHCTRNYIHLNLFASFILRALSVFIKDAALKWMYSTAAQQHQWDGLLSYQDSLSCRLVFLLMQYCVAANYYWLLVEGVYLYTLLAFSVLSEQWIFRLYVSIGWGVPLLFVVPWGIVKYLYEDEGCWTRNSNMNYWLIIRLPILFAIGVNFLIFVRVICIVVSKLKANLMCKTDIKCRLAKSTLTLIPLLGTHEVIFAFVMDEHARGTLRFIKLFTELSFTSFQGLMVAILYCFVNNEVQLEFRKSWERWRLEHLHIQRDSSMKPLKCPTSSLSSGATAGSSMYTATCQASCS
Consider `O=C(O)c1ccc2nc(CN3CCC(c4cccc(OCc5ccc(C6(F)COC6)cc5)n4)CC3)n(C[C@@H]3CCO3)c2c1`, for which the EC50 stood at 0.08 nM.

`O=C(O)c1ccc2nc(CN3CCC(c4cccc(OCc5ccc(C6COC6)cc5OCC(F)(F)F)n4)CC3)n(C[C@@H]3CCO3)c2c1`: the EC50 is 2.8 nM.

Take `CCC(=O)c1ccc(COc2cccc(C3CCN(Cc4nc5ccc(C(=O)O)cc5n4C[C@@H]4CCO4)CC3)n2)c(F)c1`: the EC50 came out at 0.95 nM.

On to `O=C(O)c1ccc2nc(CN3CCC(c4cccc(OCc5ccc(C6COC6)cc5F)n4)CC3)n(CC3(F)CCC3)c2c1`, for which the EC50 is 39 nM.

For the compound `O=C(O)c1ccc2nc(CN3CCC(c4cccc(OCC5CCN(C6COC6)CC5)n4)CC3)n(C[C@@H]3CCO3)c2c1`, the EC50 stood at 33.2 nM.

On to `CN1CCC(C(=O)c2ccc(COc3cccc(C4CCN(Cc5nc6ccc(C(=O)O)cc6n5C[C@@H]5CCO5)CC4)n3)c(F)c2)CC1`, for which the EC50 is more than 1000 nM.

Regarding `CC(=O)c1ccc(COc2cccc(C3CCN(Cc4nc5ccc(C(=O)O)cc5n4C[C@@H]4CCO4)CC3)n2)c(F)c1`, the concentration giving a half-maximal response (EC50) amounted to 0.54 nM.

With `O=C(O)c1ccc2nc(CN3CCC(c4cccc(OCc5ccc(C6(O)COC6)cc5)n4)CC3)n(C[C@@H]3CCO3)c2c1`, the EC50 came out at 3.08 nM.

For `N#CCC1(n2c(CC3CCC(c4cccc(OCc5ccc(C6COC6)cc5F)n4)CC3)nc3ccc(C(=O)O)cc32)CC1` (configuration not stated), the EC50 turned out to be 0.08 nM.
